Assays:
anti-ovalbumin IgG = test: ELISA of plasma anti-ovalbumin IgG after 3 weekly i.v. injections (FIG. 3); format: in vivo, mouse (C3H/HeJ)
Procedure: Groups of four C3H/HeJ mice per experimental point were given the specified treatment as a single i.v. dose via a lateral tail vein. The injection, given in a volume of 200 μL, contained 50 μg of ovalbumin. In animals receiving control (protein free) liposomes, the dose was chosen based on the lipid dose given for the ovalbumin-coated liposome group. This lipid dose was approximately 45 mg/kg. In the groups receiving doxorubicin, the drug dose was approximately 8 mg/kg.
Microtitre plates (Flow Laboratories) were coated with 50 μL of 40 μg/mL ovalbumin and incubated at 4° C. overnight. The plates were washed twice (phosphate buffered saline containing 0.1% (vol/vol) TWEEN® 20) and then blocked with 2% bovine serum albumin (BSA) for 1 hour at 37° C. The plates were rinsed prior to addition of mouse plasma in a final volume of 100 μL (the extent to which the plasma was diluted depended on treatment group). […] Plates were incubated at room temperature for 30 min, washed, and the amount of plate associated β-galactosidase was determined. […] The amount of chlorophenol red produced was determined by measuring absorbance at 570 nm on a […] ® plate reader. Antibody levels were estimated on the basis of standard curves consisting of known quantities of a rabbit polyclonal anti-ovalbumin IgG (Cortex Biochemicals, Calif., USA). […]

[1] = mouse, in vivo; cited from earlier work
RES = conditions: in vivo; cited from earlier work

| Substance | anti-ovalbumin IgG level (anti-ovalbumin IgG) [μg/mL plasma] | maximum tolerated dose [1] | circulation lifetimes for the liposomal carrier (RES) | liposome accumulation in the liver (RES) | spleen and bone marrow cellularity (RES) |
| --- | --- | --- | --- | --- | --- |
| free ovalbumin: IMJECT® (ovalbumin) obtained from Pierce | 2.1 |  |  |  |  |
| liposomal doxorubicin |  | greater than 60 mg doxorubicin/kg | significant increases | significant decreases | extended suppression |

Source: patent US5780054A, “Methods for increasing the circulation half-life of protein-based therapeutics” (University of British Columbia, priority 1996, dated 1998)
